{
  "source": "patent US12275685B2",
  "about": "“Oligo-benzamide analogs and their use in cancer treatment” (Board of Regents, The University of Texas System, priority 2018, dated 2025)",
  "key": {"[1]": {"system": "ERMT (therapy resistant) xenografts", "test": "ERMT therapy resistant xenografts", "format": "in vivo, nude mice", "settings": "10 mg/kg/day oral", "experimental": "FIGS. 8A & 8B show the effect of TK41 (i.e., ERX-41) on therapy resistant cancer cells. ERMT (therapy resistant) xenografts (n=8) were established in nude mice and treated with vehicle (circle markers) or 10 mg/kg/day/oral ERX-41 (square markers)."}, "HMEC cells": {"system": "HMEC cells", "test": "ER stress induction in HMEC cells", "format": "cell-based, human", "settings": "normal HMEC cells", "text": "The basal level of expression of endoplasmic reticulum stress and unfolded protein response correlates with TK41 activity (FIG. 28). Modulation of the level of these stress proteins affects the activity of TK41. Thus, the basal level of expression of endoplasmic reticulum stress and unfolded protein response proteins may serve as a biomarker to predict response to TK41. […] Without wishing to be bound by any particular theory, the mechanism of action of TK41 may operate comprise targeting either ER or TLX and inducing endoplasmic reticulum stress, subsequent apoptosis, and blocking autophagic fusion (FIG. 30).\nERX-41 induces endoplasmic reticulum stress in TNBC. To understand the mechanism of action of ERX-41 in TNBC, the inventors performed unbiased RNA sequencing studies in three TNBC (SUM-159, MDA-MB-231, and BT549) and normal HMEC cell lines (FIGS. 36A-C). […] Heatmaps show the induction of ER stress and UPR genes in these three TNBC cell lines (FIG. 36E). Evaluation of ER stress induction was then performed with ultrastructural studies using electron microscopy (EM) studies."}, "lipase activity of LIPA": {"molecular_target": "T1, lipase activity of LIPA (Homo sapiens, UniProt P38571)", "T1 construct": "lipase activity of parental SUM-159 (WT) and SUM-159 cells with LIPA KO; endogenous in cells; host or cells: SUM-159 (parental)", "T1 sequence (P38571 77-399)": "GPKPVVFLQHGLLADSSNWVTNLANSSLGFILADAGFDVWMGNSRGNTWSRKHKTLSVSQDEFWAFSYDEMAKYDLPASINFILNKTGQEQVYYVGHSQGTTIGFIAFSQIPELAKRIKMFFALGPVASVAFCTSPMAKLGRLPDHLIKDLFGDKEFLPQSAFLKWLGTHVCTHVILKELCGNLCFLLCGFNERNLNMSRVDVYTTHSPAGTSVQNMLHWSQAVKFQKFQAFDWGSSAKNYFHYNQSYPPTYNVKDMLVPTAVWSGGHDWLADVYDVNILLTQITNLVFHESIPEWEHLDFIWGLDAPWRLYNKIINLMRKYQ", "test": "Lipase activity assay", "format": "biochemical", "settings": "SUM-159 cells", "text": "(§1) FIGS. 39A-N: (FIGS. 39A-E) Predicted binding mode of ERX-41 (colored in green) on the human lysosomal acid lipase (LAL, PDB code: 6V7N, LXXLL (SEQ ID NO: 1) domain colored in orange). (FIG. 39F) PDB structure of LAL protein showing relative positions of the catalytic domain (with H274Y MT) and the LXXLL (SEQ ID NO: 1) domain (L242P MT). (FIG. 39G) Evaluation of the effect of ERX-41 and lalistat (known lipase inhibitor) on lipase activity of parental SUM-159 (WT) and SUM-159 cells with LIPA KO. (FIG. 39H) Evaluation of basal lipase activity in parental SUM-159 (WT), SUM-159 cells with LIPA KO (KO), SUM-159 cells with LIPA KO and with reconstitution of either WT LIPA (KO+WT), H274Y MT-LIPA (KO+H274Y), DLXXLL (SEQ ID NO: 2) MT-LIPA (KO+DLXXLL (SEQ ID NO: 2)) or L242P MT-LIPA (KO+L242P). Protein expression of LAL and control vinculin in these cells are shown below (FIG. 391) Cellular lysates from described SUM-159 cells were incubated with biotinylated ERX-11 or biotinylated ERX-41 and then subject to a streptavidin column. Elutants were then evaluated for LIPA pulldown by western blotting. (FIG. 39J) Dose response curve to increasing concentrations of ERX-41 in described SUM-159 cells. (FIGS. 39K-M) Effect of vehicle or 1 μM ERX-41 on induction of UPR genes at the protein level (FIG. 39K) or RNA level (FIGS. 39L-M). […]"}, "[2]": {"system": "SUM-159 cells with LIPA KO and reconstitution of LIPA", "test": "Dose response in SUM-159 LIPA KO cells reconstituted with LIPA constructs", "format": "cell-based", "text": "as §1"}},
  "data": [
    {"smiles": "CC(C)COc1cc(C(=O)Nc2ccc(C(=O)N[C@H]3CC[C@H](C)CC3)cc2OCC(C)C)ccc1NC(=O)c1ccc([N+](=O)[O-])c(OCCO)c1", "note": "[TK41]", "values": [
      {"measurement": "activity against ERMT tumors", "setting": "[1]", "result": "has activity against ERMT tumors"},
      {"measurement": "induction of endoplasmic reticulum stress in HMEC", "setting": "HMEC cells", "result": "does not induce endoplasmic reticulum stress"},
      {"measurement": "induction of endoplasmic reticulum stress in HMEC", "setting": "HMEC cells; listed as ERX-41", "result": "unable to induce ER stress"},
      {"measurement": "effect on lipase activity of LIPA", "setting": "lipase activity of LIPA", "result": "no inhibition of lipase activity"},
      {"measurement": "sensitivity after reconstitution of H274Y MT-LIPA", "setting": "[2]; KO+H274Y", "result": "restored sensitivity"},
      {"measurement": "IC50", "setting": "[2]; SUM159, KO+WT (WT-LIPA reconstituted)", "result": 250, "unit": "nM"}
    ]}
  ]
}
